Reference: patent publication EP4768499A1, “MACROCYCLIC PEPTIDE COMPOUND HAVING CELL MEMBRANE PERMEABILITY AND METABOLIC STABILITY, AND LIBRARY CONTAINING SAME” (Chugai Seiyaku Kabushiki Kaisha, priority 2023, dated 2025)
Starred links: 1 amine or outer side, 2 acyl side, 3 side chain; linkers in the order of their positions; H or OH if unused. Positions of bridges follow the written chain, without caps; N, C: chain ends. Non-standard residues stand in square brackets, D forms with d. Residues, ends and D or L forms follow the SMILES beside them. *: point of attachment. NMeF = CN[C@@H](Cc1ccccc1)C(=O)O; NMeGABA = CN(CCCC(=O)[*:2])[*:1]; NMeI = CC[C@H](C)[C@H](NC)C(=O)O; hPhe = N[C@@H](CCc1ccccc1)C(=O)O; NMeβAla = CN(CCC(=O)[*:2])[*:1]; NMeL = CN[C@@H](CC(C)C)C(=O)O; NMeV = CN[C@H](C(=O)O)C(C)C; d(β3hA) = C[C@@H](N)CC(=O)O; NMeAbu = CC[C@H](NC)C(=O)O; NMeA = CN[C@@H](C)C(=O)O; Piperidide = C1CCN(*)CC1; dNMeA = CN[C@H](C)C(=O)O; Abu = CC[C@H](N)C(=O)O; NBuGly = CCCCNCC(=O)O; βAla = NCCC(=O)O; Sar = CNCC(=O)O; tBu = CC(C)(C)*

What was measured:
[1] = Membrane permeability test using Caco-2 cells with preincubation; assay type: in vitro ADME; details: Caco-2; preincubation 20 to 24 hours; Apical FaSSIF/HBSS pH 6.0, Basal HBSS 4% BSA pH 7.4; 180 minutes; read-out: Caco2 Papp
Procedure: (§1) The permeability coefficient (Caco-2 Papp (cm/sec)) is calculated using a numerical expression 1. [Expression 1] Papp = (1)/(C1 (0) × S) × (dQ)/(dt) [formula] dQ/dt represents the permeation rate of drug (the amount of drug appearing on the Basal side per unit time), S represents the total surface area of cells, and C1(0) represents the concentration of drug added on the Apical side.
(§2) Using a mixed medium of FaSSIF containing 1% DMSO and DMEM as the apical medium, and DMEM as the basal medium, Caco-2 cells and peptide compounds are preincubated for 20 to 24 hours under conditions of 5% CO2, 37°C, and 80 rpm. Afterward, the culture medium on the Apical side and the Basal side are aspirated and washed, the peptide compound was added to a FaSSIF/HBSS buffer solution containing 1% DMSO (1% DMSO) (pH 6.0) at the Apical side, a HBSS buffer solution containing 4% BSA (pH 7.4) was added to the Basal side, and measurement of membrane permeability is started. Each well is shaken under 5% CO2 at 37°C and 80 rpm, and at 180 minutes after the start of shaking, a sample on the Basal side is collected. The amount of peptide compounds in the sample was measured using LCMS, and the membrane permeability coefficient was calculated from the permeation amount (Table 7). When calculating the membrane permeability coefficient (Papp) from the permeation amount, the following expression can be used. Papp = (dQ)/(dt) × (1)/(C1 (0) × S) [formula]
(§3) dQ/dt represents the permeation rate of drug (the amount of drug appearing on the Basal side per unit time), C1(0) represents the concentration of drug added on the Apical side, and S represents the total surface area of cells.

Caco-2 cells = assay: as above; assay type: in vitro ADME; details: Caco-2 cells, preincubation 20 to 24 hours; apical FaSSIF/HBSS 1% DMSO pH 6.0, basal HBSS 4% BSA pH 7.4; basal sample at 180 minutes
Procedure: as §1, §2, §3

[2] = Metabolic stability test: liver microsomal stability assay; assay type: in vitro ADME, mouse; details: mouse liver microsomes 0.5 mg protein/mL, compound 1 µM; for microsomal CLint at 1 µM: male, pH 7.4, presence of NADPH, read-out: Mouse Hepatic Microsome CLh,int NADPH(+); for Mouse Hepatic Microsome CLh,int NADPH(-): absence of NADPH
Procedure: Under the presence and absence of NADPH, a microsome solution prepared to a concentration of 0.5 mg protein/mL using 100 mM phosphate buffer (pH 7.4) with mouse liver microsomes (male, Corning Incorporated, USA) and the compound at a concentration of 1 µM were subjected to a metabolic reaction for 22 minutes, 44 minutes, or 66 minutes. Protein removal processing was performed over time using acetonitrile, and the remaining amount of unchanged compound was analyzed using LCMS to calculate the intrinsic hepatic clearance (CLh, int) (Table 6).

| SMILES | Papp A→B [1] [×10⁻⁶ cm/s] | Caco2 Papp (10^-6 cm/sec) (Caco-2 cells) | microsomal CLint at 1 µM [2] [µL/min/mg] | Mouse Hepatic Microsome CLh,int NADPH(-) [2] [µL/min/mg Protein] |
| --- | --- | --- | --- | --- |
| CC[C@@H]1NC(=O)[C@H](CC(C)C)N(C)C(=O)[C@H](CC(C)C)NC(=O)CN(C)C(=O)[C@H](C(C)C)NC(=O)[C@H](CC(C)C)N(C)C(=O)[C@H](C(C)C)NC(=O)[C@H](Cc2ccccc2)N(C)C(=O)[C@H](C)N(C)C(=O)[C@@H](C)NC(=O)C[C@@H](C)NC(=O)[C@H](C(C)C)N(C)C(=O)[C@H](CC)N(C)C(=O)[C@H](CCc2ccccc2)NC1=O [pd006] (cyclo([Abu][hPhe][NMeAbu][NMeV][d(β3hA)][dA][NMeA][NMeF]V[NMeL]V[Sar]L[NMeL])) | < 0.11 | <0.11 10^-6 cm/sec | 51.4 | 30.0 |
| CC[C@H](C)[C@@H]1NC(=O)[C@H](CC(C)C)N(C)C(=O)[C@H](CC(C)C)NC(=O)[C@H](C)N(C)C(=O)C[C@@H](C)NC(=O)[C@H](CC(C)C)NC(=O)[C@H](CC(C)C)N(C)C(=O)CN(C)C(=O)[C@H](C(C)C)NC(=O)[C@H]([C@@H](C)CC)N(C)C(=O)[C@H](COC(C)(C)C)NC(=O)[C@H](CC(C)C)N(C)C(=O)CCNC(=O)[C@H](Cc2ccccc2)N(C)C1=O [pd007] (cyclo(I[NMeF][βAla][NMeL]S(tBu)[NMeI]V[Sar][NMeL]L[d(β3hA)][NMeA]L[NMeL])) | 0.11 | 0.11 10^-6 cm/sec | 40.8 | 34.9 |
| CC[C@@H]1NC(=O)[C@H](Cc2ccccc2)N(C)C(=O)[C@H](COC(C)(C)C)NC(=O)[C@H](CC(C)C)N(C)C(=O)[C@H](C(C)C)NC(=O)CN(C)C(=O)[C@H]([C@@H](C)O)NC(=O)[C@H](CC(C)C)N(C)C(=O)[C@H](C(C)C)NC(=O)[C@H](Cc2ccccc2)N(C)C(=O)[C@H](C)N(C)C(=O)[C@@H](C)NC(=O)C[C@@H](C)NC(=O)[C@H](C(C)C)N(C)C1=O [pd008] (cyclo([Abu][NMeV][d(β3hA)][dA][NMeA][NMeF]V[NMeL]T[Sar]V[NMeL]S(tBu)[NMeF])) | 0.04 | 0.04 10^-6 cm/sec | 13.4 | 11.8 |
| CC[C@H](C)[C@@H]1NC(=O)[C@H](CC(C)C)N(C)C(=O)[C@H](CC(C)C)NC(=O)[C@H](C)N(C)C(=O)C[C@@H](C)NC(=O)CN(C)C(=O)[C@H](CC(C)C)N(C)C(=O)[C@H]([C@@H](C)O)NC(=O)[C@H](C(C)C)NC(=O)[C@H]([C@@H](C)CC)N(C)C(=O)[C@H](COC(C)(C)C)NC(=O)[C@H](CC(C)C)N(C)C(=O)[C@H](C)NC(=O)[C@H](Cc2ccccc2)N(C)C1=O [pd009] (cyclo(A[NMeL]S(tBu)[NMeI]VT[NMeL][Sar][d(β3hA)][NMeA]L[NMeL]I[NMeF])) | 0.13 | 0.13 10^-6 cm/sec | 38.9 | 42.4 |
| CC[C@@H]1NC(=O)[C@H](CC(C)C)N(C)C(=O)[C@H]([C@@H](C)CC)NC(=O)CN(C)C(=O)C[C@@H](C)NC(=O)[C@H](C(C)C)N(C)C(=O)[C@H](COC(C)(C)C)NC(=O)[C@H](CC(C)C)N(C)C(=O)[C@H](C)NC(=O)[C@H](Cc2ccccc2)N(C)C(=O)[C@H](CC(C)C)NC(=O)CN(C)C(=O)[C@H]([C@@H](C)O)NC(=O)[C@H](CC(C)C)N(C)C1=O [pd010] (cyclo(A[NMeL]S(tBu)[NMeV][d(β3hA)][Sar]I[NMeL][Abu][NMeL]T[Sar]L[NMeF])) | 0.72 | 0.72 10^-6 cm/sec | 59.7 | 27.8 |
| CC[C@@H]1NC(=O)[C@H](CC(C)C)N(C)C(=O)[C@H]([C@@H](C)CC)NC(=O)CN(C)C(=O)C[C@@H](C)NC(=O)[C@H](C(C)C)N(C)C(=O)[C@H](COC(C)(C)C)NC(=O)[C@H](CC(C)C)N(C)C(=O)[C@H](Cc2ccccc2)N(C)C(=O)[C@H](C)NC(=O)[C@H](C(C)C)NC(=O)CN(C)C(=O)[C@H]([C@@H](C)O)NC(=O)[C@H](CC(C)C)N(C)C1=O [pd011] (cyclo(A[NMeF][NMeL]S(tBu)[NMeV][d(β3hA)][Sar]I[NMeL][Abu][NMeL]T[Sar]V)) | 0.11 | 0.11 10^-6 cm/sec | 27.3 | 22.9 |
| CC[C@@H]1NC(=O)[C@H](Cc2ccccc2)N(C)C(=O)[C@H](COC(C)(C)C)NC(=O)[C@H](CC(C)C)N(C)C(=O)[C@H](C)N(C)C(=O)[C@@H]2CCCN2C(=O)[C@H]([C@@H](C)O)NC(=O)[C@H](CC(C)C)N(C)C(=O)[C@H]([C@@H](C)CC)NC(=O)[C@H](Cc2ccccc2)N(C)C(=O)[C@H](C(C)C)NC(=O)[C@@H](C)N(C)C(=O)C[C@@H](C)NC(=O)[C@H](C(C)C)N(C)C1=O [pd012] (cyclo([Abu][NMeV][d(β3hA)][dNMeA]V[NMeF]I[NMeL]TP[NMeA][NMeL]S(tBu)[NMeF])) | 4.3 | 4.30 10^-6 cm/sec | 41.3 | 20.1 |
| CC[C@@H]1NC(=O)[C@H](Cc2ccccc2)N(C)C(=O)[C@H](C(C)C)NC(=O)[C@H](COC(C)(C)C)NC(=O)[C@H](C)N(C)C(=O)CN(C)C(=O)[C@H](CC(C)C)NC(=O)[C@@H]2CCCN2C(=O)[C@H](C(C)C)N(C)C(=O)[C@H](C)NC(=O)[C@H](CC)N(C)C(=O)[C@@H](C(C)C)NC(=O)C[C@@H](C(=O)N2CCCCC2)NC(=O)[C@H](C(C)C)N(C)C1=O [pd013] ([dV][NMeAbu]A[NMeV]PL[Sar][NMeA]S(tBu)V[NMeF][Abu][NMeV]D-Piperidide; lactam N-14) | 0.04 | 0.04 10^-6 cm/sec | 12.1 | 6.1 |
| CC(C)C[C@@H]1NC(=O)[C@@H]2CCCN2C(=O)[C@H](C(C)C)N(C)C(=O)[C@H](C)NC(=O)[C@H](CC(C)C)N(C)C(=O)[C@@H](C(C)C)NC(=O)C[C@@H](C(=O)N2CCCCC2)NC(=O)[C@H](C(C)C)N(C)C(=O)[C@H](C)NC(=O)[C@H](CC(C)C)N(C)C(=O)[C@H](C(C)C)NC(=O)[C@H](COC(C)(C)C)NC(=O)[C@H](CC(C)C)N(C)C(=O)[C@H](Cc2ccccc2)N(C)C1=O [pd014] ([dV][NMeL]A[NMeV]PL[NMeF][NMeL]S(tBu)V[NMeL]A[NMeV]D-Piperidide; lactam N-14) | < 0.11 | <0.11 10^-6 cm/sec | 31.1 | 33.0 |
| CC[C@H](C)[C@@H]1NC(=O)[C@H](C)NC(=O)[C@H](CC(C)C)N(C)C(=O)[C@H](COC(C)(C)C)NC(=O)[C@H](CC(C)C)N(C)C(=O)[C@@H]2CCCN2C(=O)[C@H](Cc2ccccc2)NC(=O)CCN(C)C(=O)[C@H](CC(C)C)N(C)C(=O)CCCN(C)C(=O)C[C@@H](C(=O)N2CCCCC2)NC(=O)[C@H](Cc2ccccc2)N(C)C(=O)[C@H](CC(C)C)NC(=O)[C@H](CC)N(C)C1=O [pd017] ([NMeGABA][NMeL][NMeβAla]FP[NMeL]S(tBu)[NMeL]AI[NMeAbu]L[NMeF]D-Piperidide; lactam N-14) | 0.09 | 0.09 10^-6 cm/sec | 39.4 | 40.1 |
| CCCCN1CC(=O)N(C)[C@@H](CC)C(=O)N[C@@H](CC(C)C)C(=O)N[C@H](C(=O)N2CCCCC2)CC(=O)N(C)[C@@H](C)C(=O)N[C@@H]([C@@H](C)CC)C(=O)N(C)[C@@H](Cc2ccccc2)C(=O)N(C)[C@@H](CC(C)C)C(=O)N[C@@H](C(C)C)C(=O)N(C)CC(=O)N[C@@H](CC(C)C)C(=O)N(C)[C@@H](Cc2ccccc2)C(=O)N(C)[C@@H](C)C(=O)N[C@@H](CC(C)C)C1=O [pd018] ([NMeA]I[NMeF][NMeL]V[Sar]L[NMeF][NMeA]L[NBuGly][NMeAbu]LD-Piperidide; lactam N-14) | 0.11 | 0.11 10^-6 cm/sec | 42.3 | 34.1 |
